Test results from patent publication US9833455B2, “Preparation and methods of use for ortho-aryl 5-membered heteroaryl-carboxamide containing multi-targeted kinase inhibitors” (Spacefill Enterprises LLC, priority 2011, dated 2017).
Where two headings read alike, the source gives them in different places. One block for each molecule: values may come before it.

Key:
ROS/ROS1 = target: T1, ROS/ROS1 (Homo sapiens, UniProt P08922); test: Reaction Biology P33 radiolabeled kinase assay, IC50 and time dependence; format: biochemical; conditions: for IC50: ATP 10 uM, read-out: Compound IC50* ROS/ROS1
T1 construct: purchased Reaction Biology Inc (contract assay)
T1 sequence (P08922 28-2347): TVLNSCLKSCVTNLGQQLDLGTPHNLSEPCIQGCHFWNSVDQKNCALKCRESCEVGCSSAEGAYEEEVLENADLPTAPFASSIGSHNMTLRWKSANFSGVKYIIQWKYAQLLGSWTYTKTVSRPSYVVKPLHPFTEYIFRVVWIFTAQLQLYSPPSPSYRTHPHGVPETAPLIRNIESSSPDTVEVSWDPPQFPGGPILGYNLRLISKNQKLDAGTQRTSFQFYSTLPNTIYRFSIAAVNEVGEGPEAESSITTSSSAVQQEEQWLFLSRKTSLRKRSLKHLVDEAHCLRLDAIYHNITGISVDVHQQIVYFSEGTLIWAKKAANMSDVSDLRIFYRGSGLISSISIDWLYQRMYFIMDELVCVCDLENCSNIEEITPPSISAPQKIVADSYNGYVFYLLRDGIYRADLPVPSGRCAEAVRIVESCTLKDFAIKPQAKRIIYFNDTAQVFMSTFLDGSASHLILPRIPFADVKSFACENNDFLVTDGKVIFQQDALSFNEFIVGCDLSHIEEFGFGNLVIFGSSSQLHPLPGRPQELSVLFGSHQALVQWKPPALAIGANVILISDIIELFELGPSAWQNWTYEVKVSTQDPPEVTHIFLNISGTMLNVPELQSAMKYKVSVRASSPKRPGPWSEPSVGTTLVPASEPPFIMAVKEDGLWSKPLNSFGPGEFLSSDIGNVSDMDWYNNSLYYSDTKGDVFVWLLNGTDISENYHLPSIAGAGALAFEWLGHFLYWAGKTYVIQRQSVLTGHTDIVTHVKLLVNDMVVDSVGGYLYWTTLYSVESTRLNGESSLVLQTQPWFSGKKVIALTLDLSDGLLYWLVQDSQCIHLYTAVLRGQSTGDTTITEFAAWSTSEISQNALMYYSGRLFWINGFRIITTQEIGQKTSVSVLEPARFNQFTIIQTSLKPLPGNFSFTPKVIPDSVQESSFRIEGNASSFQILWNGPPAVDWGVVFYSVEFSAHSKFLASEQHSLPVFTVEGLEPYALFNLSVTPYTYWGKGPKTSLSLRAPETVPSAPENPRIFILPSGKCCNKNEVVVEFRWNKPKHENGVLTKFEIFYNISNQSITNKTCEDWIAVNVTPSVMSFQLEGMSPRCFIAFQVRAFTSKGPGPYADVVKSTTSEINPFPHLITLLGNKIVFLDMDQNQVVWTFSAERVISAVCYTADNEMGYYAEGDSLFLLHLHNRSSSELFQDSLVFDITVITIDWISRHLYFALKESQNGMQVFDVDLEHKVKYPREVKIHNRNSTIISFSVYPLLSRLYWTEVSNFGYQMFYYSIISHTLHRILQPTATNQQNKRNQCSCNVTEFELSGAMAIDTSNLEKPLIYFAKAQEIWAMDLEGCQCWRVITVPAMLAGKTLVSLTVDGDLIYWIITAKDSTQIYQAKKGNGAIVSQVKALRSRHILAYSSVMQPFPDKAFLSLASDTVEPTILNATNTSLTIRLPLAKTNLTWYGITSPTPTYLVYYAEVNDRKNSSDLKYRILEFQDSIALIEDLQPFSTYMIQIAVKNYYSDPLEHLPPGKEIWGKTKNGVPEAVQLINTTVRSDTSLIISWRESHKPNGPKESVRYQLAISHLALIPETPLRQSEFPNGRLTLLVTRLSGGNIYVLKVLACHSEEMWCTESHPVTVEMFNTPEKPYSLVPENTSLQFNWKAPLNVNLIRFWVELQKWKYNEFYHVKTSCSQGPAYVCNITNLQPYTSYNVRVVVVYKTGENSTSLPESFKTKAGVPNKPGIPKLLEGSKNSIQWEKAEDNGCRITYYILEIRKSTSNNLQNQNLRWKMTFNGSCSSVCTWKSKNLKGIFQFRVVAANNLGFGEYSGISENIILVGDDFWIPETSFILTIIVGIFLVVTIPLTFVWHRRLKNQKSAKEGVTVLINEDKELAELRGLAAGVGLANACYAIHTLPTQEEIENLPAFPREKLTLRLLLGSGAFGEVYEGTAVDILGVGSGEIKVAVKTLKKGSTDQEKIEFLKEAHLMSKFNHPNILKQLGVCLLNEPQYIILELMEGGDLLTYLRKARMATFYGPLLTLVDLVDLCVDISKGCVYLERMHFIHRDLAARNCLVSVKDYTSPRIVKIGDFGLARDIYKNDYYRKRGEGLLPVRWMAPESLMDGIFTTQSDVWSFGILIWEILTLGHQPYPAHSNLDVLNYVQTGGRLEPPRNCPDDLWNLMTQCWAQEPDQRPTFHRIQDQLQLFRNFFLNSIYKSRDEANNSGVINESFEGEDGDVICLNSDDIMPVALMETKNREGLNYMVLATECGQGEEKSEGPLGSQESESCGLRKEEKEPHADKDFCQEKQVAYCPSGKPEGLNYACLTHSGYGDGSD
Method: (§1) “Inhibiting kinase activity” means to decrease the production of an phosphor-peptide by a particular kinase that can be separated by analytical techniques. For example, a comprehensive platform of kinase, protease, phosphatase and epigenetic assays that utilizes cutting-edge microfluidics and informatics tools to provide accurate and rapid results. Profiling data in this application were determined using these techniques at Nanosyn Inc. IC50 data were provided by Reaction Biology Inc using a P33 radiolabeled kinase assay.
(§2) The observation of potency and isoform selectivity with time-dependency for PI3K-γ appears to be unprecedented in the literature. In addition, these activities combined with inhibition of p38-α, Raf-1, DDR and CSF-1R, would be complimentary and potentially synergistic activities for both the treatment of certain inflammation based conditions and cancers.

P38a/MAPK14 = target: T2, P38a/MAPK14 (Homo sapiens, UniProt Q16539); test: as above; format: biochemical; conditions: for IC50: ATP 10 uM, read-out: Compound IC50* P38a/MAPK14
T2 construct: purchased Reaction Biology Inc (contract assay)
T2 sequence (Q16539 whole entry): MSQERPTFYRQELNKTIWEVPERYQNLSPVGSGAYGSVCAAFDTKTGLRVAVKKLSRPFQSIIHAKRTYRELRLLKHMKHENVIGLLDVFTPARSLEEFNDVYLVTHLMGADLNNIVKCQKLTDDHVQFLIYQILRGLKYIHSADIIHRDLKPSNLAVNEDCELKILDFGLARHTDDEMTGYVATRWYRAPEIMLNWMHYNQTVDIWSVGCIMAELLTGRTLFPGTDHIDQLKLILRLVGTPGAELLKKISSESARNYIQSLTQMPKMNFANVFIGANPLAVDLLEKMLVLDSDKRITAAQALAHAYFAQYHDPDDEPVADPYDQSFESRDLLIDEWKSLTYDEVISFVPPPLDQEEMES
Method: as §1, §2

RAF1 = target: T3, RAF1 (Homo sapiens, UniProt P04049); test: as above; format: biochemical; conditions: for IC50: ATP 10 uM, read-out: Compound IC50* RAF1
T3 construct: literature Ambit Biosciences
Method: as §1, §2

FMS = FMS (Homo sapiens, UniProt P07333); test: as above; format: biochemical; conditions: for IC50: ATP 10 uM, read-out: Compound IC50* FMS
Method: as §1, §2

c-Kit = target: T4, c-Kit (Homo sapiens, UniProt P10721); test: as above; format: biochemical; conditions: for IC50: ATP 10 uM, read-out: Compound IC50* c-Kit
T4 construct: purchased Reaction Biology Inc (contract assay)
T4 sequence (P10721 26-976): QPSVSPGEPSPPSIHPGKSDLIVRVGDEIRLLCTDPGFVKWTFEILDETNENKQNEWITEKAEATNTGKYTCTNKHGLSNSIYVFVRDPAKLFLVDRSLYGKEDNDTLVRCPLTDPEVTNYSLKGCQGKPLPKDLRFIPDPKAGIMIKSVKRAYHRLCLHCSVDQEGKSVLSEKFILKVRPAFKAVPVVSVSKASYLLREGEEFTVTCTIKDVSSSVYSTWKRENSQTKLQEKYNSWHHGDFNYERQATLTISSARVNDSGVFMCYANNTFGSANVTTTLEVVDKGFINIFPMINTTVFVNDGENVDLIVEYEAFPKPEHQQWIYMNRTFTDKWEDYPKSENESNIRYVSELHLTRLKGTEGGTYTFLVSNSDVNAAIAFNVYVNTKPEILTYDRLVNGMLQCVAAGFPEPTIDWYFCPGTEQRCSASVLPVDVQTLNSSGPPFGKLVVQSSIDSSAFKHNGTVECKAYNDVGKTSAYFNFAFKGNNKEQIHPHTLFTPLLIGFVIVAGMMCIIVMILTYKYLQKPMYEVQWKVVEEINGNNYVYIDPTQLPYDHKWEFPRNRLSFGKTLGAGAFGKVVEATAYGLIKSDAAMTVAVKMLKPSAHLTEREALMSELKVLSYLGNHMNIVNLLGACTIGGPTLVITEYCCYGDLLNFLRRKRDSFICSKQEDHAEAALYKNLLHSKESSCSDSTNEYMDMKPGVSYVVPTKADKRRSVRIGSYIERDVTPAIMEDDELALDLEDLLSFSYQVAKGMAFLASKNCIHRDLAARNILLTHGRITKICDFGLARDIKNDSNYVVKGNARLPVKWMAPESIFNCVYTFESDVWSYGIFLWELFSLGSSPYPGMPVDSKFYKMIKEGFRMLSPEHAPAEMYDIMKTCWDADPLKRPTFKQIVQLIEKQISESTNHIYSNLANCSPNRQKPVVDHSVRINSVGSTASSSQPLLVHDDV
Method: as §1, §2

DDR2 = target: T5, DDR2 (Homo sapiens, UniProt Q16832); test: as above; format: biochemical; conditions: for IC50: ATP 10 uM, read-out: Compound IC50* DDR2
T5 sequence (Q16832 22-855): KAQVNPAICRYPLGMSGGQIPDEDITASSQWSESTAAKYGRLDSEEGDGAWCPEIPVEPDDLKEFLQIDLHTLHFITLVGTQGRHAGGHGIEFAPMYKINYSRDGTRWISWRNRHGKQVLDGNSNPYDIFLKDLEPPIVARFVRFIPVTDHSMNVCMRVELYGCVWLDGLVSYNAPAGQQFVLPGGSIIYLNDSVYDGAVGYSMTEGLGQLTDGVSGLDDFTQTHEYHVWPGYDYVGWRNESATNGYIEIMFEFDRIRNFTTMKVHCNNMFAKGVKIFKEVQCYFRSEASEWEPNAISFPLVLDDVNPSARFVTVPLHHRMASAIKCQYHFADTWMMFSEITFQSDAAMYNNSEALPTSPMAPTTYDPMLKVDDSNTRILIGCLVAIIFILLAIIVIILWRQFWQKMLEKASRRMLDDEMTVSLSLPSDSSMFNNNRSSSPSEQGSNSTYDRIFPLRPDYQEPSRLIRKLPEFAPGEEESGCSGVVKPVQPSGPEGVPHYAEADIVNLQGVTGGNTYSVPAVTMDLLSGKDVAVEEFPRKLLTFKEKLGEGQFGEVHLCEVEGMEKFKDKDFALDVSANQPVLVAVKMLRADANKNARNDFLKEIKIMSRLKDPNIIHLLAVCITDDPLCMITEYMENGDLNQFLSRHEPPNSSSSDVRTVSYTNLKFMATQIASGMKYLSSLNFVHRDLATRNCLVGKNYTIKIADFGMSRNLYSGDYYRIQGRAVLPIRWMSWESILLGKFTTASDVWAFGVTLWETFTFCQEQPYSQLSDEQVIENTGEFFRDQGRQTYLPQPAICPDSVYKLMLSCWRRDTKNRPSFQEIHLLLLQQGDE
Method: as §1, §2

P38b/MAPK11 = target: T6, P38b/MAPK11 (Homo sapiens, UniProt Q15759); test: as above; format: biochemical; conditions: for IC50: ATP 10 uM, read-out: Compound IC50* P38b/MAPK11
T6 construct: purchased Reaction Biology Inc (contract assay)
T6 sequence (Q15759 whole entry): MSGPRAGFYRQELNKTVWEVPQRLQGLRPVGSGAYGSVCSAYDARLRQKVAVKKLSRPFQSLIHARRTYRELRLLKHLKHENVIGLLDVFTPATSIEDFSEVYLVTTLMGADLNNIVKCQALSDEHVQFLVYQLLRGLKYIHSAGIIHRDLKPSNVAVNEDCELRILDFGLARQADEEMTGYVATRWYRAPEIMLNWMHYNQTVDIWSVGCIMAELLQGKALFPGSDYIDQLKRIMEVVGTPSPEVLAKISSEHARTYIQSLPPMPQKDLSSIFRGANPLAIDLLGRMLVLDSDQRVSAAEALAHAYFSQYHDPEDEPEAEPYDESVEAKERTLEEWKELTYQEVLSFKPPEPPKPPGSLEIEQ
Method: as §1, §2

BRAF = target: T7, BRAF (Homo sapiens, UniProt P15056); test: as above; format: biochemical; conditions: for IC50: ATP 10 uM, read-out: Compound IC50* BRAF
T7 construct: literature Ambit Biosciences
T7 sequence (P15056 whole entry): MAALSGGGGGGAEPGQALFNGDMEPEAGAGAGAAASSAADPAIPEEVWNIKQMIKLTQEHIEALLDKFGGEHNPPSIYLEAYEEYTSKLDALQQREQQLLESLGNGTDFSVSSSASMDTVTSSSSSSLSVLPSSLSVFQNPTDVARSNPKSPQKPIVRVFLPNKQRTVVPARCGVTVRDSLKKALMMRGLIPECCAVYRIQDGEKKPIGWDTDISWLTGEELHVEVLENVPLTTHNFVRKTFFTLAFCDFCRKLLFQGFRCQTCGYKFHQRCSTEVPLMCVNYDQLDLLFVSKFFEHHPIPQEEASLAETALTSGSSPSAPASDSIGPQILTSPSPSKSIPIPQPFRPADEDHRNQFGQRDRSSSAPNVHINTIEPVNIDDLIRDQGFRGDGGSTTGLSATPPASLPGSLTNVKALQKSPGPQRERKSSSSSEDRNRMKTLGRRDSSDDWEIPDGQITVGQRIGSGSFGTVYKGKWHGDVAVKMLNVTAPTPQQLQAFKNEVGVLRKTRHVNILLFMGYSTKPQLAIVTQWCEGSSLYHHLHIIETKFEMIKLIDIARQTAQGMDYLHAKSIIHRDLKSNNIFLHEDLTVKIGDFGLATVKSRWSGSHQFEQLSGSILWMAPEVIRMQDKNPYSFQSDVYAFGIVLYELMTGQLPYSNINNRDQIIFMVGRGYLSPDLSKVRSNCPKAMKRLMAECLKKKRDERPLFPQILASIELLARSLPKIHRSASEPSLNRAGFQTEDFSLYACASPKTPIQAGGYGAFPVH
Method: as §1, §2

EGFR(L858R) = target: T8, EGFR(L858R) (Homo sapiens, UniProt P00533, L858R); conditions: 1 μM, duplicate, without preincubation; cited from earlier work
T8 construct: literature Ambit Biosciences

FGFR3 = target: T9, FGFR3 (Homo sapiens, UniProt P22607); conditions: 1 μM, duplicate, without preincubation; cited from earlier work
T9 construct: literature Ambit Biosciences

BMPR2 = target: T10, BMPR2 (Homo sapiens, UniProt Q13873); conditions: 1 μM, duplicate, without preincubation; cited from earlier work
T10 construct: literature Ambit Biosciences

Time Dependence Observed? ROS/ROS1 (ROS/ROS1; 15 vs 60 Min preincubation): No
IC50 (ROS/ROS1; preincubation 15 Min): 1250 nM
IC50 (ROS/ROS1; preincubation 60 Min): 1280 nM
Time Dependence Observed? P38a/MAPK14 (P38a/MAPK14; 15 vs 60 Min preincubation): No
IC50 (P38a/MAPK14; preincubation 15 Min): 150 nM
IC50 (P38a/MAPK14; preincubation 60 Min): 150 nM
Time Dependence Observed? RAF1 (RAF1; 15 vs 60 Min preincubation): Yes
IC50 (RAF1; preincubation 15 Min): 96.5 nM
IC50 (RAF1; preincubation 60 Min): 81.3 nM
Time Dependence Observed? FMS (FMS; 15 vs 60 Min preincubation): No
IC50 (FMS; preincubation 15 Min): 220 nM
IC50 (FMS; preincubation 60 Min): 240 nM
Time Dependence Observed? c-Kit (c-Kit; 15 vs 60 Min preincubation): No
IC50 (c-Kit; preincubation 15 Min): 772 nM
IC50 (c-Kit; preincubation 60 Min): 987 nM
Time Dependence Observed? DDR2 (DDR2; 15 vs 60 Min preincubation): No
IC50 (DDR2; preincubation 15 Min): 222 nM
IC50 (DDR2; preincubation 60 Min): 221 nM
Time Dependence Observed? P38b/MAPK11 (P38b/MAPK11; 15 vs 60 Min preincubation): No
IC50 (P38b/MAPK11; preincubation 15 Min): 1020 nM
IC50 (P38b/MAPK11; preincubation 60 Min): 1080 nM
Time Dependence Observed? BRAF (BRAF; 15 vs 60 Min preincubation): Yes
IC50 (BRAF; preincubation 15 Min): 388 nM
IC50 (BRAF; preincubation 60 Min): 323 nM
Compound: Cc1ccc(NC(=O)c2nc(S(C)(=O)=O)[nH]c2-c2ccc(F)cc2)cc1Nc1nccc(-c2cccnc2)n1 [Inhibitor I-14, 3-(4-(pyridin-3-yl)-pyrimidinyl-2-yl)amino-4-methyl-analine, 5-(4-Fluorophenyl)-2-(methylsulfonyl)-1H-imidazole-4-carboxamide]

Compound: Cc1ccc(NC(=O)c2[nH]c(C(F)(F)F)nc2-c2ccc(F)cc2)cc1Nc1ccc2ncn(C)c(=O)c2c1 [KIN-035]
inhibition of EGFR(L858R) (EGFR(L858R)): X (X > 25% @ 1 μM)

Compound: Cc1ccc(-c2nc(C(F)(F)F)[nH]c2C(=O)Nc2ccc(C)c(Nc3ccc4ncn(C)c(=O)c4c3)c2)cc1F [KIN-038]
inhibition of FGFR3 (FGFR3): X (X > 25% @ 1 μM)
inhibition of BMPR2 (BMPR2): X (X > 25% @ 1 μM)
